We go through 4 molecules from US20210115104A1, “AMYLIN ANALOGUES” (Zealand Pharma A/S, priority 2015, published 2021).

Each structure is given as a SMILES string. Where two headings read alike, the source gives them in different places. *1 amine or outer side, *2 acyl side, *3 side chain or, on linkers, in order; H or OH if unused. Where a SMILES comes first, the peptide text is derived from it. Bridges are numbered along the chain shown (N, C = ends). [ ]: non-standard residue; d: D form. The star is where a group is joined. C20 diacid = O=C(O)CCCCCCCCCCCCCCCCCCC(=O)*; γGlu = O=C(O)[C@H](CCC(=O)[*:2])N[*:1]; Hyp = O=C(O)[C@@H]1C[C@@H](O)CN1; NMeI = CC[C@H](C)[C@H](NC)C(=O)O; Aad = N[C@@H](CCCC(=O)O)C(=O)O; Sar = CNCC(=O)O

Data set [1] addresses T1, human calcitonin receptor (hCTR2) (Homo sapiens, UniProt P30988).
T1 construct: expressed in transfected cells
T1 sequence (P30988 25-474): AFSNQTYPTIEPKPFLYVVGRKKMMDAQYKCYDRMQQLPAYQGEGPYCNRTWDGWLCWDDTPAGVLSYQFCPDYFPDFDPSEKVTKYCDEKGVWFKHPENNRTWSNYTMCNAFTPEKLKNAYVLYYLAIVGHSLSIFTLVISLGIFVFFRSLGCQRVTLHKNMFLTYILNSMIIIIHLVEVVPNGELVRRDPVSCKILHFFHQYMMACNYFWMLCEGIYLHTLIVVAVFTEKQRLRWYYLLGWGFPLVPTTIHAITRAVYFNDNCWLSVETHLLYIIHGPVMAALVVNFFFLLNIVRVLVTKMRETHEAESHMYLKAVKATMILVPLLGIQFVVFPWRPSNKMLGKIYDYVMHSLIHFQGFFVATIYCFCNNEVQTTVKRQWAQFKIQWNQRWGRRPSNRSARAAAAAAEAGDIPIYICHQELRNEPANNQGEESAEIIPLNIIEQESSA
Briefly: hCTR2 cAMP assay (AlphaScreen) in COS7 cells. The data set is classed as cell-based. In outline: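 cAMP induction, read by AlphaScreen after lysis, gives EC50 values via 4PL curve fitting. Peptides were applied at rising concentrations for 15 min at 37 °C, with IBMX and 0.1% casein in HEPES-buffered Tyrode pH 7.4, to COS7 cells (no endogenous RAMPs) stably expressing human CTR2.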

The target in data set [2] is T2, human amylin receptor 3 (hAMYR3), hCTR2 co-expressed with hRAMP3 (Homo sapiens, UniProt O60896+P30988).
T2 construct: expressed in transfected cells
T2 sequence (P30988 25-474): T1 sequence (P30988 25-474)
T2 sequence (O60896 24-148 partner): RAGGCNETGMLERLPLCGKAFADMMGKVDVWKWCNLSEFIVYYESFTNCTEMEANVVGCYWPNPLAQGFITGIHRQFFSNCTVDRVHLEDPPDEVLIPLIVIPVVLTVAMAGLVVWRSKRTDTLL
The data set can be described thus: hAMYR3 cAMP assay (AlphaScreen) in COS7 cells. The data set is classed as cell-based. The method, boiled down:
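EC50 values derive from 4PL curve fits of cAMP (AlphaScreen) in lysates of RAMP-naive COS7 cells stably carrying hCTR2 plus hRAMP3. Peptide dilution series were applied for 15 min at 37 °C in pH 7.4 Tyrode buffer containing 100 µM IBMX and 0.1% casein.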

A short description of data set [3]: Assessment of chemical stability (RP-HPLC normalized purity). Type of data set: physicochemical. The settings on record: for Normalized purity after 7 days, 40° C., pH 4: pH 4, 0.2 mg/ml; for Normalized purity after 7 days, 40° C., pH 4 / Normalized purity after 7 days, 40° C., pH 6 / Normalized purity after 7 days, 40° C., pH 7.5 / Normalized purity after 7 days, 40° C., pH 9: Table 1; for Normalized purity after 7 days, 40° C., pH 6: pH 6, 0.2 mg/ml; for Normalized purity after 7 days, 40° C., pH 7.5: pH 7.5, 0.2 mg/ml; for Normalized purity after 7 days, 40° C., pH 9: pH 9, 0.2 mg/ml. The method, boiled down: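 Purity after 7 days at 40° C is expressed relative to T=0 (set to 100) for each pH. Samples at 0.2 mg/ml, pH 4, 6, 7.5 or 9, analyzed by RP-HPLC with UV 220 nm on C8 (ammonium formate) or C18 (TFA) gradients.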

[4] abbreviates: cAMP induction, COS7 cells expressing hCTR2, Table 1, read-out: hCTR2 EC50.
Where [5] appears, read: cAMP induction, COS7 cells expressing hAMYR3, Table 1, read-out: hAMYR3 EC50.

In the case of `CC[C@H](C)[C@@H](C(=O)N[C@@H](CC(C)C)C(=O)N[C@@H](CO)C(=O)N[C@@H](CO)C(=O)N[C@H](C(=O)N[C@@H](CCC(=O)O)C(=O)N[C@H](C(=O)NCC(=O)N[C@@H](CO)C(=O)N[C@@H](CC(N)=O)C(=O)N[C@H](C(=O)N1C[C@H](O)C[C@H]1C(N)=O)[C@@H](C)O)C(C)C)[C@@H](C)O)N(C)C(=O)[C@H](C)NC(=O)CN(C)C(=O)[C@H](Cc1ccccc1)NC(=O)[C@H](CCCNC(=N)N)NC(=O)[C@H](CCC(N)=O)NC(=O)[C@H](CC(C)C)NC(=O)[C@H](Cc1ccccc1)NC(=O)[C@H](CCCC(=O)O)NC(=O)[C@H](C)NC(=O)[C@H](CC(C)C)NC(=O)[C@H](CCCNC(=N)N)NC(=O)[C@H](CC(=O)O)NC(=O)[C@@H](NC(=O)[C@H](C)NC(=O)[C@@H]1CSSC[C@H](NC(=O)[C@H](CCCNC(=N)N)NC(=O)CC[C@H](NC(=O)CCCCCCCCCCCCCCCCCCC(=O)O)C(=O)O)C(=O)N[C@@H](CCC(N)=O)C(=O)N[C@@H]([C@@H](C)O)C(=O)N[C@@H](C)C(=O)N[C@@H]([C@@H](C)O)C(=O)N1)[C@@H](C)O` [Compound 95, [19CD]-isoGlu-R-C( )-QTAT-C( )-ATDRLA-Aad-FLQRF-Gly(Me)-A-Ile(Me)-LSSTEVGSNT-Hyp-NH2] ({C20 diacid-γGlu}-RCQTATCATDRLA[Aad]FLQRF[Sar]A[NMeI]LSSTEVGSNT[Hyp]-NH2; disulfide 2-7), in data set [1] (setting [4]), the EC50 is 180 pM. Besides, in data set [2] (setting [5]), the EC50 is 200 pM. Further, in data set [3], the “Normalized purity after 7 days, 40° C., pH 4” value is listed as “A (A = >90%)”; the “Normalized purity after 7 days, 40° C., pH 6” value is given as “A (A = >90%)”; the “Normalized purity after 7 days, 40° C., pH 7.5” value is on record as “A (A = >90%)”; the “Normalized purity after 7 days, 40° C., pH 9” value is on record as “A (A = >90%)”.
As for `CC[C@H](C)[C@@H](C(=O)N[C@@H](CC(C)C)C(=O)N[C@@H](CO)C(=O)N[C@@H](CO)C(=O)N[C@H](C(=O)N[C@@H](CCC(=O)O)C(=O)N[C@H](C(=O)NCC(=O)N[C@@H](CO)C(=O)N[C@@H](CC(N)=O)C(=O)N[C@H](C(=O)N1C[C@H](O)C[C@H]1C(N)=O)[C@@H](C)O)C(C)C)[C@@H](C)O)N(C)C(=O)[C@H](C)NC(=O)CN(C)C(=O)[C@H](Cc1ccccc1)NC(=O)[C@H](CC(N)=O)NC(=O)[C@H](CC(N)=O)NC(=O)[C@H](CO)NC(=O)[C@H](CO)NC(=O)[C@H](CCCNC(=N)N)NC(=O)[C@H](CCC(N)=O)NC(=O)[C@H](CC(C)C)NC(=O)[C@H](Cc1ccccc1)NC(=O)[C@H](CCCC(=O)O)NC(=O)[C@H](C)NC(=O)[C@H](CC(C)C)NC(=O)[C@H](CCCNC(=N)N)NC(=O)[C@H](CCC(=O)O)NC(=O)[C@@H](NC(=O)[C@H](C)NC(=O)[C@@H]1CSSC[C@H](NC(=O)[C@H](CCCNC(=N)N)NC(=O)CC[C@H](NC(=O)CCCCCCCCCCCCCCCCCCC(=O)O)C(=O)O)C(=O)NCC(=O)N[C@@H]([C@@H](C)O)C(=O)N[C@@H](C)C(=O)N[C@@H]([C@@H](C)O)C(=O)N1)[C@@H](C)O` [Compound 98, [19CD]-isoGlu-R-C( )-GTAT-C( )-ATERLA-Aad-FLQRSSNNF-Gly(Me)-A-Ile(Me)-LSSTEVGSNT-Hyp-NH2, reference compound] ({C20 diacid-γGlu}-RCGTATCATERLA[Aad]FLQRSSNNF[Sar]A[NMeI]LSSTEVGSNT[Hyp]-NH2; disulfide 2-7), the half-maximal effective concentration (EC50) in data set [1] came out at 7200 pM; in data set [2] it was 380 pM. Besides, the “Normalized purity pH 4 (Table 5)” value in data set [3] (pH 4, repeat of Example 6 for pairs with/without Asn-Asn at 21-22) is “A (A = >90%)”. Moreover, in data set [3] (pH 6, repeat of Example 6 for pairs with/without Asn-Asn at 21-22), the “Normalized purity pH 6 (Table 5)” value is on record as “A (A = >90%)”. For the same molecule, the “Normalized purity pH 7.5 (Table 5)” value in data set [3] (pH 7.5, repeat of Example 6 for pairs with/without Asn-Asn at 21-22) is “B (B = 70-90%)”. For the same molecule, the “Normalized purity pH 9 (Table 5)” value in data set [3] (pH 9, repeat of Example 6 for pairs with/without Asn-Asn at 21-22) is listed as “B (B = 70-90%)”.
Regarding `CC[C@H](C)[C@@H](C(=O)N[C@@H](CC(C)C)C(=O)N[C@@H](CO)C(=O)N[C@@H](CO)C(=O)N[C@H](C(=O)N[C@@H](CCC(=O)O)C(=O)N[C@H](C(=O)NCC(=O)N[C@@H](CO)C(=O)N[C@@H](CO)C(=O)N[C@H](C(=O)N1C[C@H](O)C[C@H]1C(N)=O)[C@@H](C)O)C(C)C)[C@@H](C)O)N(C)C(=O)[C@H](C)NC(=O)CN(C)C(=O)[C@H](Cc1ccccc1)NC(=O)[C@H](CO)NC(=O)[C@H](CO)NC(=O)[C@H](CCCNC(=N)N)NC(=O)[C@@H](NC(=O)[C@H](CC(C)C)NC(=O)[C@H](Cc1ccccc1)NC(=O)[C@H](CC(=O)O)NC(=O)[C@H](C)NC(=O)[C@H](CC(C)C)NC(=O)[C@H](CCCNC(=N)N)NC(=O)[C@H](CCC(=O)O)NC(=O)[C@@H](NC(=O)[C@H](C)NC(=O)[C@@H]1CSSC[C@H](NC(=O)[C@H](CCCNC(=N)N)NC(=O)CC[C@H](NC(=O)CCCCCCCCCCCCCCCCCCC(=O)O)C(=O)O)C(=O)NCC(=O)N[C@@H]([C@@H](C)O)C(=O)N[C@@H](C)C(=O)N[C@@H]([C@@H](C)O)C(=O)N1)[C@@H](C)O)[C@@H](C)O` [Compound 41, [19CD]-isoGlu-R-C( )-GTAT-C( )-ATERLADFLTRSSF-Gly(Me)-A-Ile(Me)-LSSTEVGSST-Hyp-NH2] ({C20 diacid-γGlu}-RCGTATCATERLADFLTRSSF[Sar]A[NMeI]LSSTEVGSST[Hyp]-NH2; disulfide 2-7), the EC50 in data set [1] (setting [4]) amounted to 150 pM. Further, in data set [2] (setting [5]), the EC50 was 340 pM. Moreover, in data set [3], the “Normalized purity after 7 days, 40° C., pH 4” value was “B (B = 70-90%)”; the “Normalized purity after 7 days, 40° C., pH 6” value is “A (A = >90%)”; the “Normalized purity after 7 days, 40° C., pH 7.5” value is listed as “A (A = >90%)”; the “Normalized purity after 7 days, 40° C., pH 9” value is listed as “A (A = >90%)”.
Consider `CC[C@H](C)[C@@H](C(=O)N[C@@H](CC(C)C)C(=O)N[C@@H](CO)C(=O)N[C@@H](CO)C(=O)N[C@H](C(=O)N[C@@H](CCC(=O)O)C(=O)N[C@H](C(=O)NCC(=O)N[C@@H](CO)C(=O)N[C@@H](Cc1ccccc1)C(=O)N[C@H](C(=O)N1C[C@H](O)C[C@H]1C(N)=O)[C@@H](C)O)C(C)C)[C@@H](C)O)N(C)C(=O)[C@H](C)NC(=O)CN(C)C(=O)[C@H](Cc1ccccc1)NC(=O)[C@H](CO)NC(=O)[C@H](CO)NC(=O)[C@H](CCCNC(=N)N)NC(=O)[C@H](CC(N)=O)NC(=O)[C@H](CC(C)C)NC(=O)[C@H](Cc1ccccc1)NC(=O)[C@H](Cc1c[nH]cn1)NC(=O)[C@H](C)NC(=O)[C@H](CC(C)C)NC(=O)[C@H](CCCNC(=N)N)NC(=O)[C@H](CCC(=O)O)NC(=O)[C@@H](NC(=O)[C@H](C)NC(=O)[C@@H]1CSSC[C@H](NC(=O)[C@H](CCCNC(=N)N)NC(=O)CC[C@H](NC(=O)CCCCCCCCCCCCCCCCCCC(=O)O)C(=O)O)C(=O)NCC(=O)N[C@@H]([C@@H](C)O)C(=O)N[C@@H](C)C(=O)N[C@@H]([C@@H](C)O)C(=O)N1)[C@@H](C)O` [Compound 33, [19CD]-isoGlu-R-C( )-GTAT-C( )-ATERLAHFLNRSSF-Gly(Me)-A-Ile(Me)-LSSTEVGSFT-Hyp-NH2] ({C20 diacid-γGlu}-RCGTATCATERLAHFLNRSSF[Sar]A[NMeI]LSSTEVGSFT[Hyp]-NH2; disulfide 2-7), for which the results for the EC50 in data set [1] (setting [4]) and in data set [2] (setting [5]) were 110 pM and 150 pM, respectively.
